The results in this text go back to US20100029657A1, “Bridged, Bicyclic Heterocyclic or Spiro Bicyclic Heterocyclic Derivatives of Pyrazolo[1, 5-A]Pyrimidines, Methods for Preparation and Uses Thereof” (Wyeth, priority 2008, published 2010).

The target in the assay is T1, Flag/GST-tagged recombinant human B-Raf (Homo sapiens, UniProt P15056).
T1 construct: Flag; GST; made in house; host or cells: Sf9 insect cells (B-Raf); E. coli (MEK1-GST)
Put plainly: B-Raf kinase assay (phosphorylation of GST-MEK1, phospho-MEK1 antibody/Europium detection). In kind it is biochemical. Conditions: B-Raf IC50 Data for compounds of Formula A; read-out: Mean IC50. A digest of the protocol: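 Percent inhibition was calculated at each compound concentration from Europium time-resolved fluorescence (anti-phospho-MEK1, then Eu-conjugated anti-rabbit) after GST capture. The upstream kinase step used GST-MEK1 with 0.2 nM B-Raf for 45 min at room temperature in MOPS buffer, pH 7.2. It was started with a cocktail of 200 μM ATP and 40 mM MgCl2.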

T1 sequence (P15056 whole entry): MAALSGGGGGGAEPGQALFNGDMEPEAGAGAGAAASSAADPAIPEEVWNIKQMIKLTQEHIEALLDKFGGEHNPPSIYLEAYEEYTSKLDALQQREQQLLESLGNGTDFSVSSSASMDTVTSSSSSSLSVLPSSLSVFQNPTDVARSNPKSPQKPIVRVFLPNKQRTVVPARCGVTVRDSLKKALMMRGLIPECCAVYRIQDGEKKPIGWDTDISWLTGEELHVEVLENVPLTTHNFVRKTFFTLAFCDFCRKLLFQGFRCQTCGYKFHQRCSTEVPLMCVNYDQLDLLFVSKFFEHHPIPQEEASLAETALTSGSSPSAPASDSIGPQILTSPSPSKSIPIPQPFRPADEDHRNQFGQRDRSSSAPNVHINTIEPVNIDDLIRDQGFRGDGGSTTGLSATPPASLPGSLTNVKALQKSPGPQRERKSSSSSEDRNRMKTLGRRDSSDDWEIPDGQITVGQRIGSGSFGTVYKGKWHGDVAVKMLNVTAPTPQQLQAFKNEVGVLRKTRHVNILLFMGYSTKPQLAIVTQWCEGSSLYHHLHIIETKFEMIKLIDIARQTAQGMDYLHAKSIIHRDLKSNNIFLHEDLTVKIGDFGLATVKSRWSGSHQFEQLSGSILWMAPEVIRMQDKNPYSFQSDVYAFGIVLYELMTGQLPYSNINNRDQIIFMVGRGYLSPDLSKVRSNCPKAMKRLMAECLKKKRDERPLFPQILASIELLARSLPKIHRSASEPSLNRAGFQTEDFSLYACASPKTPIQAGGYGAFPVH

Broadly, the IC50 is the midpoint of a concentration-inhibition curve. As for `CN1C[C@@H]2C[C@H]1CN2c1c(F)cc(-c2ccnc3c(-c4cccc5[nH]ncc45)c(-c4ccncc4)nn23)cc1F` [Example 164, 7-{3,5-difluoro-4-[(1S,4S)-5-methyl-2,5-diazabicyclo[2.2.1]hept-2-yl]phenyl}-3-(1H-indazol-4-yl)-2-pyridin-4-ylpyrazolo[1,5-a]pyrimidine], the IC50 was found to be 9.6 nM.

`CN1C[C@@H]2C[C@H]1CN2c1ccc(-c2ccnc3c(-c4cccc5[nH]ncc45)c(-c4ccncc4)nn23)c(F)c1F` [Example 165, 7-{2,3-difluoro-4-[(1S,4S)-5-methyl-2,5-diazabicyclo[2.2.1]hept-2-yl]phenyl}-3-(1H-indazol-4-yl)-2-pyridin-4-ylpyrazolo[1,5-a]pyrimidine]: the IC50 amounted to 0.6 nM.

As for `CN1C[C@@H]2C[C@H]1CN2c1cc(F)c(-c2ccnc3c(-c4cccc5[nH]ncc45)c(-c4ccncc4)nn23)cc1F` [Example 166, 7-{2,5-difluoro-4-[(1S,4S)-5-methyl-2,5-diazabicyclo[2.2.1]hept-2-yl]phenyl}-3-(1H-indazol-4-yl)-2-pyridin-4-ylpyrazolo[1,5-a]pyrimidine], the IC50 is 0.4 nM.

With `CCN1C[C@@H]2C[C@H]1CN2c1cc(F)c(-c2ccnc3c(-c4cccc5[nH]ncc45)c(-c4ccncc4)nn23)c(F)c1` [Example 167, 7-{4-[(1S,4S)-5-ethyl-2,5-diazabicyclo[2.2.1]hept-2-yl]-2,6-difluorophenyl}-3-(1H-indazol-4-yl)-2-pyridin-4-ylpyrazolo[1,5-a]pyrimidine], the concentration for half-maximal inhibition (IC50) is less than 0.3 nM.

Consider `CC(C)CN1C[C@@H]2C[C@H]1CN2c1cc(F)c(-c2ccnc3c(-c4cccc5[nH]ncc45)c(-c4ccncc4)nn23)c(F)c1` [Example 168, 7-{2,6-difluoro-4-[(1S,4S)-5-isobutyl-2,5-diazabicyclo[2.2.1]hept-2-yl]phenyl}-3-(1H-indazol-4-yl)-2-pyridin-4-ylpyrazolo[1,5-a]pyrimidine], for which the IC50 is less than 0.3 nM.

On to `CC(C)N1C[C@@H]2C[C@H]1CN2c1cc(F)c(-c2ccnc3c(-c4cccc5[nH]ncc45)c(-c4ccncc4)nn23)c(F)c1` [Example 169, 7-{2,6-difluoro-4-[(1S,4S)-5-isopropyl-2,5-diazabicyclo[2.2.1]hept-2-yl]phenyl}-3-(1H-indazol-4-yl)-2-pyridin-4-ylpyrazolo[1,5-a]pyrimidine], for which the IC50 was less than 0.3 nM.

For `Fc1cc(N2C[C@@H]3C[C@H]2CN3C2CCC2)cc(F)c1-c1ccnc2c(-c3cccc4[nH]ncc34)c(-c3ccncc3)nn12` [Example 170, 7-{4-[(1S,4S)-5-cyclobutyl-2,5-diazabicyclo[2.2.1]hept-2-yl]-2,6-difluorophenyl}-3-(1H-indazol-4-yl)-2-pyridin-4-ylpyrazolo[1,5-a]pyrimidine], the IC50 is less than 0.3 nM.

Consider `Fc1cc(N2C[C@@H]3CC[C@H]2CN3)ccc1-c1ccnc2c(-c3cccc4[nH]ncc34)c(-c3ccncc3)nn12` [Example 172, 7-{4-[(1S,4S)-2,5-diazabicyclo[2.2.2]oct-2-yl]-2-fluorophenyl}-3-(1H-indazol-4-yl)-2-pyridin-4-ylpyrazolo[1,5-a]pyrimidine], for which the IC50 was found to be 0.3 nM.

Take `CN1C[C@@H]2CC[C@H]1CN2c1ccc(-c2ccnc3c(-c4cccc5[nH]ncc45)c(-c4ccncc4)nn23)c(F)c1` [Example 173, 7-{2-fluoro-4-[(1S,4S)-5-methyl-2,5-diazabicyclo[2.2.2]oct-2-yl]phenyl}-3-(1H-indazol-4-yl)-2-pyridin-4-ylpyrazolo[1,5-a]pyrimidine]: the IC50 worked out at 0.4 nM.

As to `CN1C[C@@H]2C[C@H]1CN2c1c(F)c(F)c(-c2ccnc3c(-c4cccc5[nH]ncc45)c(-c4ccncc4)nn23)c(F)c1F` [Example 174, 3-(1H-indazol-4-yl)-2-pyridin-4-yl-7-{2,3,5,6-tetrafluoro-4-[(1S,4S)-5-methyl-2,5-diazabicyclo[2.2.1]hept-2-yl]phenyl}pyrazolo[1,5-a]pyrimidine], the IC50 was found to be 0.4 nM.

Consider `CC(C)(C)OC(=O)N1C[C@@H]2C[C@H]1CN2c1ccc(-c2ccnc3c(-c4ccc(F)c5[nH]ncc45)c(-c4ccncc4)nn23)c(Cl)c1` [Example 175, tert-butyl (1S,4S)-5-{3-chloro-4-[3-(7-fluoro-1H-indazol-4-yl)-2-pyridin-4-ylpyrazolo[1,5-a]pyrimidin-7-yl]phenyl}-2,5-diazabicyclo[2.2.1]heptane-2-carboxylate], for which the IC50 worked out at 1 nM.

For the molecule `Fc1ccc(-c2c(-c3ccncc3)nn3c2nccc3[C@H]2CC[C@@H](N3C[C@@H]4C[C@H]3CN4)CC2)c2cn[nH]c12` [Example 176, 7-{cis-4-[(1S,4S)-2,5-diazabicyclo[2.2.1]hept-2-yl]cyclohexyl}-3-(7-fluoro-1H-indazol-4-yl)-2-pyridin-4-ylpyrazolo[1,5-a]pyrimidine], the IC50 was 1 nM.

Turning to `Fc1ccc(-c2c(-c3ccncc3)nn3c2nccc3[C@H]2CC[C@@H](N3C[C@@H]4C[C@H]3CO4)CC2)c2cn[nH]c12` [Example 177, 3-(7-fluoro-1H-indazol-4-yl)-7-{cis-4-[(1S,4S)-2-oxa-5-azabicyclo[2.2.1]hept-5-yl]cyclohexyl}-2-pyridin-4-ylpyrazolo[1,5-a]pyrimidine], the IC50 came out at 4 nM.

`Fc1ccc(-c2c(-c3ccncc3)nn3c2nccc3[C@H]2CC[C@H](N3C[C@@H]4C[C@H]3CO4)CC2)c2cn[nH]c12` [Example 178, 3-(7-fluoro-1H-indazol-4-yl)-7-{trans-4-[(1S,4S)-2-oxa-5-azabicyclo[2.2.1]hept-5-yl]cyclohexyl}-2-pyridin-4-ylpyrazolo[1,5-a]pyrimidine]: the IC50 is 6.7 nM.

As to `Fc1ccc(-c2c(-c3ccncc3)nn3c2nccc3[C@H]2CC[C@H](N3C[C@@H]4C[C@H]3CN4)CC2)c2cn[nH]c12` [Example 183, 7-{trans-4-[(1S,4S)-2,5-diazabicyclo[2.2.1]hept-2-yl]cyclohexyl}-3-(7-fluoro-1H-indazol-4-yl)-2-pyridin-4-ylpyrazolo[1,5-a]pyrimidine], the IC50 was less than 0.3 nM.

As for `Fc1ccc(-c2c(-c3ccncc3)nn3c(-c4ccc(N5C[C@@H]6C[C@H]5CN6)cc4Cl)ccnc23)c2cn[nH]c12` [Example 184, 7-{2-chloro-4-[(1S,4S)-2,5-diazabicyclo[2.2.1]hept-2-yl]phenyl}-3-(7-fluoro-1H-indazol-4-yl)-2-pyridin-4-ylpyrazolo[1,5-a]pyrimidine], the IC50 is less than 0.3 nM.

For `Fc1cc(-c2ccnc3c(-c4cccc5[nH]ncc45)c(-c4ccncc4)nn23)ccc1N1C[C@@H]2C[C@H]1CN2` [Example 185, 7-{4-[(1S,4S)-2,5-diazabicyclo[2.2.1]hept-2-yl]-3-fluorophenyl}-3-(1H-indazol-4-yl)-2-pyridin-4-ylpyrazolo[1,5-a]pyrimidine], the IC50 came to 1.7 nM.

For `FC(F)(F)c1cc(N2C[C@@H]3C[C@H]2CN3)ccc1-c1ccnc2c(-c3cccc4[nH]ncc34)c(-c3ccncc3)nn12` [Example 186, 7-{4-[(1S,4S)-2,5-diazabicyclo[2.2.1]hept-2-yl]-2-(trifluoromethyl)phenyl}-3-(1H-indazol-4-yl)-2-pyridin-4-ylpyrazolo[1,5-a]pyrimidine], the IC50 came to 1.1 nM.

For the molecule `Brc1cc(N2C[C@@H]3C[C@H]2CN3)ccc1-c1ccnc2c(-c3cccc4[nH]ncc34)c(-c3ccncc3)nn12` [Example 187, 7-{2-bromo-4-[(1S,4S)-2,5-diazabicyclo[2.2.1]hept-2-yl]phenyl}-3-(1H-indazol-4-yl)-2-pyridin-4-ylpyrazolo[1,5-a]pyrimidine], the IC50 is less than 0.3 nM.

Consider `CN1C[C@@H]2C[C@H]1CN2c1ccc(-c2ccnc3c(-c4cccc5[nH]ncc45)c(-c4ccncc4)nn23)cc1F` [Example 188, 7-{3-fluoro-4-[(1S,4S)-5-methyl-2,5-diazabicyclo[2.2.1]hept-2-yl]phenyl}-3-(1H-indazol-4-yl)-2-pyridin-4-ylpyrazolo[1,5-a]pyrimidine], for which the IC50 is 1.9 nM.

For the molecule `CN1C[C@@H]2C[C@H]1CN2c1ccc(-c2ccnc3c(-c4cccc5[nH]ncc45)c(-c4ccncc4)nn23)c(C(F)(F)F)c1` [Example 189, 3-(1H-indazol-4-yl)-7-{4-[(1S,4S)-5-methyl-2,5-diazabicyclo[2.2.1]hept-2-yl]-2-(trifluoromethyl)phenyl}-2-pyridin-4-ylpyrazolo[1,5-a]pyrimidine], the IC50 amounted to 1.4 nM.

Consider `CN1C[C@@H]2C[C@H]1CN2c1ccc(-c2ccnc3c(-c4cccc5[nH]ncc45)c(-c4ccncc4)nn23)c(Br)c1` [Example 190, 7-{2-bromo-4-[(1S,4S)-5-methyl-2,5-diazabicyclo[2.2.1]hept-2-yl]phenyl}-3-(1H-indazol-4-yl)-2-pyridin-4-ylpyrazolo[1,5-a]pyrimidine], for which the IC50 is less than 0.3 nM.

On to `C1=C(c2ccnc3c(-c4cccc5[nH]ncc45)c(-c4ccncc4)nn23)CCC2(C1)OCCO2` [Example 191, 7-(1,4-dioxaspiro[4.5]dec-7-en-8-yl)-3-(1H-indazol-4-yl)-2-pyridin-4-ylpyrazolo[1,5-a]pyrimidine], for which the IC50 is 56.1 nM.

For `C[N+]1([O-])C[C@@H]2C[C@H]1CN2c1cc(F)c(-c2ccnc3c(-c4cccc5[nH]ncc45)c(-c4ccncc4)nn23)c(F)c1` (stereo partly drawn) [Example 192, 7-{2,6-difluoro-4-[(1S,4S)-5-methyl-5-oxido-2,5-diazabicyclo[2.2.1]hept-2-yl]phenyl}-3-(1H-indazol-4-yl)-2-pyridin-4-ylpyrazolo[1,5-a]pyrimidine], the IC50 came out at 0.4 nM.

Turning to `c1cc(-c2c(-c3ccncc3)nn3c(-c4coc(CN5C[C@@H]6C[C@H]5CO6)c4)ccnc23)c2cn[nH]c2c1` [Example 193, 3-(1H-indazol-4-yl)-7-{5-[(1S,4S)-2-oxa-5-azabicyclo[2.2.1]hept-5-ylmethyl]furan-3-yl}-2-pyridin-4-ylpyrazolo[1,5-a]pyrimidine], the IC50 stood at 18.8 nM.
